The values below come from article PMC8507260, “A2E-induced inflammation and angiogenesis in RPE cells in vitro are modulated by PPAR-α, -β/δ, -γ, and RXR antagonists and by norbixin” (Aging (Albany NY), 2021).

Entries after “also recorded” stand apart in the source; their conditions may differ. Where two headings read alike, the source gives them in different places.

The target of one data set is T1, PPAR-β/δ (Homo sapiens, UniProt Q03181).
T1 sequence (Q03181 1-441): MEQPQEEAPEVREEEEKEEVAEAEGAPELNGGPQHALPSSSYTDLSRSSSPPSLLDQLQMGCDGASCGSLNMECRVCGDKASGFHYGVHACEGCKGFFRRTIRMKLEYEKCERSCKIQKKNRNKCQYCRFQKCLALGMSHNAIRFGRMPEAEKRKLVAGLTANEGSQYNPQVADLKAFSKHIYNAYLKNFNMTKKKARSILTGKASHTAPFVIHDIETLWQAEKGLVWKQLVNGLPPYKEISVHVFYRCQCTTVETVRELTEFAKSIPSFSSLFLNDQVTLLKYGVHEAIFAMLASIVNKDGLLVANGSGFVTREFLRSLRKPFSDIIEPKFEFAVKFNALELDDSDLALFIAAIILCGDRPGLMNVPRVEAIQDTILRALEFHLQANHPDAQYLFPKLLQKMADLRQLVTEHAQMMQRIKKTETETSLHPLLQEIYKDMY
Kind of data set: In vitro antagonist assay on PPAR-β/δ. In kind it is biochemical. An excerpt:
The binding and activity of norbixin on PPARs remains controversial, thus, firstly, we performed competition experiments in vitro between norbixin and [^3H] GW7647, an agonist of PPAR-α, and [^3H] rosiglitazone, an agonist of PPAR-γ. […] Secondly, we tested whether norbixin could induce the transactivation of PPAR-α, -β/δ or -γ in the context of RPE cells in vitro by co-transfecting porcine RPE cells with a plasmid expressing each of the full-length PPAR isoforms and a plasmid expressing luciferase under the control of the PPAR response element. […] Then, we wanted to determine if norbixin could modulate the transactivation of PPAR isoforms induced by specific agonists.

A further data set deals with T2, PPAR-γ (Homo sapiens, UniProt P37231).
T2 sequence (P37231 1-505): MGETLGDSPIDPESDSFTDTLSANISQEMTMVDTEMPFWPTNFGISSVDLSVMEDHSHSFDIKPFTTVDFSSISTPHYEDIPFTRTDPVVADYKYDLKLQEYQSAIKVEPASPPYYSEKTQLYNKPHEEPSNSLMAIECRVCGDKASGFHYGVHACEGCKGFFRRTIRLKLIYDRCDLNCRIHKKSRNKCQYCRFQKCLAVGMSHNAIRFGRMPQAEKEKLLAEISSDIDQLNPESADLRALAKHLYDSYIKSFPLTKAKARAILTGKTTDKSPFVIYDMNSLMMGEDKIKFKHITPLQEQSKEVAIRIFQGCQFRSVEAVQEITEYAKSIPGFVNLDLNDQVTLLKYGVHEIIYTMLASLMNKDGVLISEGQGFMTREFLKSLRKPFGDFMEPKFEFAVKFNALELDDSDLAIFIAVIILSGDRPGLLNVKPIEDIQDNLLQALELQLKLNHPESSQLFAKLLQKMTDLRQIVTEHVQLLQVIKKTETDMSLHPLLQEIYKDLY
On the set-up: Eurofins Cerep (contract laboratory that ran the assay); method as in PMID 19891958. As to conditions: cited from earlier work.

The test system of another data set is RPE cells. Kind of data set: Cell viability of RPE cells in culture without blue light. The class given is cell-based, porcine. As to conditions: cell culture conditions for cytokine dosage, absence of blue light exposure.

In the case of `CC(/C=C/C=C(C)/C=C/C(=O)O)=C\C=C\C=C(C)\C=C\C=C(C)\C=C\C(=O)O` (stereo in doubt) [norbixin, 9’-cis-norbixin], at PPAR-β/δ, half-maximal inhibition (IC50) required 9.9 µM. Moreover, the “PPAR-γ transactivation in 3T3-L1 adipocytes” value on PPAR-γ (norbixin at 20 μM) is “does not induce; also recorded: did not induce”; on PPAR-γ (norbixin at 70 μM), “induces a limited transactivation”.

Consider `CC(C=CC1=C(C)CCCC1(C)C)=CC=CC(C)=Cc1cc(C=CC=C(C)C=CC2=C(C)CCCC2(C)C)cc[n+]1CCO` [A2E, N-retinylidene-N-retinylethanolamine], for which the cell viability entry in the data set on RPE cells is on record as “not diminished”.
